According to PMC9804084, “Multiple drug transporters contribute to the brain transfer of levofloxacin” (CNS Neuroscience & Therapeutics, 2022):
Read-outs that look alike come from different tables or passages of the source.

Key:
P-glycoprotein (P-gp) = assay: In vivo microdialysis pharmacokinetics of LVFX with P-gp inhibitor Tariquidar; parameters: species or system rat; conditions: for MRT / Tmax / AUC(0-inf) / Cmax / half-life / AUC(0-t) / Kp: rat, intravenous, with Tariquidar 8 mg/kg i.p., TAR group, Tariquidar 8 mg/kg i.p. + LVFX 50 mg/kg, N=5; for MRT / AUC(0-inf) / Cmax / half-life / AUC(0-t): mean ± SD; for AUC(0-t): read-out: AUC0–180 (converted)
Procedure: (§1) On the day of surgery, rats were anesthetized using inhaled isoflurane via a facemask. The rats were placed in a stereotaxic frame (Gene&I), and the body temperature was maintained with a homoeothermic blanket set at 37°C. A midline incision was made to expose the skull. According to the Paxinos and Watson atlas, two microdialysis intracerebral guide cannulae (Eicom Co.) were implanted into the hippocampus CA1 region (Hp‐CA1 coordinates: AP −4.16 mm; ML −2.2 mm; DV −2.9 mm) and lateral ventricle (LV coordinates: AP −1.4 mm; ML +2.2 mm; DV −3.4 mm). Fixed to the skull using a screw and dental cement. After 3 days of recovery, the rats were anesthetized with isoflurane again. An intravascular probe (TP‐100‐20; 20 mm, Eicom Co.) was implanted into the jugular vein toward the right atrium. After the blood microdialysis probe was positioned within the jugular vein, the pipeline was connected to perfuse with ACD solution (citric acid 3.5 mM; sodium citrate 7.5 mM; dextrose 13.6 mM) at a flow rate of […], and the Hamilton microinjection pump was used for continuous perfusion. After stopping isoflurane inhalation, the rats were allowed to wake up naturally on the homoeothermic blanket. The awake rats were placed in a device that allowed them to move freely. Animals were allowed to recover for an additional 24 h.
(§2) All microdialysate concentrations (C m) from the hippocampal ECF and lateral ventricle CSF were converted to the unbound drug concentration (C u) at the target site using the following formula: C u = C m/R dial.
(§3) A total of 32 rats were randomly divided into the following groups: • Control group, N = 12: vehicle solution + LVFX (50 mg/kg). • TAR group, N = 5: Tariquidar (8 mg/kg) + LVFX (50 mg/kg). • Ko143 group, N = 5: Ko143 (15 mg/kg) + LVFX (50 mg/kg). • MK571 group, N = 5: MK571 (20 mg/kg) + LVFX (50 mg/kg). • PRO group, N = 5: Probenecid (50 mg/kg) + LVFX (50 mg/kg).
(§4) Levofloxacin was freshly dissolved in isotonic saline and administered via tail vein injection. Thirty minutes before LVFX administration, the intervention drugs of each group were injected intraperitoneally. To reduce the possible effect of solvents on BBB or BCSFB permeability of LVFX, we prioritized water as the solvent. However, Tariquidar and Ko143 are insoluble in water, and a cosolvent must be used to prepare agents that animals can tolerate. According to the different physicochemical properties of these four inhibitors, the preparation of each transporter inhibitor solution in this experiment was as follows. • P‐glycoprotein (P‐gp) inhibitor Tariquidar[22]: Tariquidar was freshly dissolved in DMSO to 8 mg/ml and then diluted to 4 mg/ml with a solution containing 10% Tween‐80, 25% PEG300, and 65% sterile water. • Breast cancer resistance protein (BCRP) inhibitor Ko143[23]: Ko143 was freshly dissolved in DMSO to 15 mg/ml and then diluted to 7.5 mg/ml with a solution containing 10% Tween‐80, 25% PEG300, and 65% sterile water. • Multidrug resistance‐associated proteins (MRPs) inhibitor MK571[24]: MK571 sodium salt hydrate was dissolved in 1.25% (w/v) aq sodium hydrogen carbonate (NaHCO3) solution to obtain a concentration of 10 mg/ml. • Organic anion transporters (OATs) inhibitor probenecid[25]: Probenecid was dissolved in NaOH (pH = 9.0–9.2) alkalized physiological saline to obtain a concentration of 25 mg/ml.
(§5) The pipelines where the blood and brain probes were installed were perfused at the speed of 2 μl/min with ACD solution and ACSF, respectively. Two brain probes were inserted into guide cannulas of the target site and allowed to equilibrate for 1 h. Subsequently, the rats were treated according to their corresponding groups in the device where they could move freely. Microdialyses samples were collected every 15 min using a fraction collector (EFC‐96, Eicom Co.) for 3 h and stored at 4°C until analysis. Finally, rats were anesthetized and decapitated, and their brain was harvested.

[1] = test system: Multidrug resistance-associated proteins (MRPs); assay: In vivo microdialysis pharmacokinetics of LVFX with MRPs inhibitor MK571; parameters: species or system rat; conditions: for increase of AUC0–180 / increase of C max: treatment with MK571 vs control group; for Kp / MRT / half-life / Tmax / AUC(0-inf) / Cmax / AUC(0-t): rat, intravenous; for Kp: with MK571 20 mg/kg intraperitoneally; for MRT / half-life / Tmax / AUC(0-inf) / Cmax / AUC(0-t): with MK571 20 mg/kg i.p.; for MRT / half-life / AUC(0-inf) / Cmax / AUC(0-t): mean ± SD; for AUC(0-t): read-out: AUC0–180 (converted)
Procedure: as §1, §2, §3, §4, §5

[2] = CSF (lateral ventricle microdialysate, unbound), CSF
[3] = brain ECF (hippocampal microdialysate, unbound), 30 min before LVFX, brain ECF
[4] = MK571 intervention vs control group
[5] = CSF (lateral ventricle microdialysate, unbound), 30 min before LVFX, CSF, MK571 group, MK571 20 mg/kg i.p. + LVFX 50 mg/kg, N=5
[6] = CSF (lateral ventricle microdialysate, unbound), CSF, MK571 group, MK571 20 mg/kg i.p. + LVFX 50 mg/kg, N=5
[7] = brain ECF (hippocampal microdialysate, unbound), 30 min before LVFX, brain ECF, MK571 group, MK571 20 mg/kg i.p. + LVFX 50 mg/kg, N=5
[8] = 30 min before LVFX, blood, MK571 group, MK571 20 mg/kg i.p. + LVFX 50 mg/kg, N=5

In the case of `C[C@H]1COc2c(N3CCN(C)CC3)c(F)cc3c(=O)c(C(=O)O)cn1c23` [LVFX, Levofloxacin], the “change in LVFX in the rat brain after Tariquidar” value (P-glycoprotein (P-gp); Tariquidar 8 mg/kg i.p. + LVFX 50 mg/kg vs control group) is reported as “no significant change”, the MRT (P-glycoprotein (P-gp); CSF (lateral ventricle microdialysate, unbound), 30 min before LVFX, CSF) is reported as 80 min and the Tmax (P-glycoprotein (P-gp); [2]) is reported as 15 min. For the same molecule, the AUC(0-inf) (P-glycoprotein (P-gp); [2]) was 4.54 µg·h/mL, the Cmax (P-glycoprotein (P-gp); [2]) was 3.59 ± 0.28 µg/mL and the half-life (P-glycoprotein (P-gp); [2]) was 50.5 ± 18.6 min. The AUC(0-t) (P-glycoprotein (P-gp); [2]) was 3.9 µg·h/mL, the Kp (P-glycoprotein (P-gp); CSF / blood (unbound, microdialysate), 30 min before LVFX, AUCu,CSF/AUCu,blood, read-out: K p,uu,CSF) was 0.37 ± 0.013 and the Tmax (P-glycoprotein (P-gp); [3]) was 15 min. For the same molecule, the AUC(0-inf) (P-glycoprotein (P-gp); [3]) was 4.58 µg·h/mL, the Cmax (P-glycoprotein (P-gp); [3]) was 2.81 ± 0.45 µg/mL and the MRT (P-glycoprotein (P-gp); [3]) was 86.1 min. It also gave a half-life (P-glycoprotein (P-gp); [3]) of 52.9 ± 9.83 min, an AUC(0-t) (P-glycoprotein (P-gp); [3]) of 4.1 µg·h/mL and a Kp (P-glycoprotein (P-gp); brain ECF / blood, 30 min before LVFX, AUCu,ECF/AUCu,blood, read-out: K p,uu,ECF) of 0.368 ± 0.035. For the same molecule, the Tmax (P-glycoprotein (P-gp); 30 min before LVFX, blood) was 15 min, the AUC(0-inf) (P-glycoprotein (P-gp); 30 min before LVFX, blood) was 11.8 µg·h/mL and the Cmax (P-glycoprotein (P-gp); 30 min before LVFX, blood) was 10.4 ± 0.76 µg/mL. It also gave an MRT (P-glycoprotein (P-gp); 30 min before LVFX, blood) of 69.2 min, a half-life (P-glycoprotein (P-gp); 30 min before LVFX, blood) of 40 ± 6.51 min and an AUC(0-t) (P-glycoprotein (P-gp); 30 min before LVFX, blood) of 11.1 µg·h/mL. The “K p,uu,CSF” value ([1]; AUCu,CSF/AUCu,blood, MK571 group, MK571 20 mg/kg i.p. + LVFX 50 mg/kg, N=5) was 47.9 ± 2.4 %, the “K p,uu,ECF” value ([1]; AUCu,ECF/AUCu,blood, MK571 group, MK571 20 mg/kg i.p. + LVFX 50 mg/kg, N=5) was 46.0 ± 1.5 % and the “increase of AUC0–180” value ([1]; CSF) was 1.26 fold. The “increase of C max” value ([1]; CSF) was 1.50 fold, the “increase in K p,uu,CSF” value [1, 4] was 1.16 fold and the “increase in K p,uu,ECF” value [1, 4] was 1.35 fold. The “increase of AUC0–180” value ([1]; brain ECF) was 1.47 fold, the “increase of C max” value ([1]; brain ECF) was 1.55 fold and the Kp ([1]; CSF (lateral ventricle microdialysate) relative to blood, 30 min before LVFX, AUCu,CSF/AUCu,blood, MK571 group, MK571 20 mg/kg i.p. + LVFX 50 mg/kg, N=5, read-out: K p,uu,CSF) was 0.479 ± 0.024. It also gave an MRT [1, 5] of 75.8 min, a half-life [1, 5] of 54.9 ± 7.43 min and a Tmax [1, 6] of 15 min. It also gave an AUC(0-inf) [1, 6] of 5.86 µg·h/mL, a Cmax [1, 6] of 5.46 ± 0.19 µg/mL and an AUC(0-t) [1, 6] of 5.29 µg·h/mL. The Kp ([1]; brain ECF (hippocampal microdialysate) relative to blood, 30 min before LVFX, AUCu,ECF/AUCu,blood, MK571 group, MK571 20 mg/kg i.p. + LVFX 50 mg/kg, N=5, read-out: K p,uu,ECF) was 0.46 ± 0.015, the Tmax [1, 7] was 15 min and the AUC(0-inf) [1, 7] was 5.63 µg·h/mL. For the same molecule, the Cmax [1, 7] was 4.21 ± 0.35 µg/mL, the MRT [1, 7] was 80.9 min and the half-life [1, 7] was 49 ± 15.1 min. The AUC(0-t) [1, 7] was 5.08 µg·h/mL, the Tmax [1, 8] was 15 min and the AUC(0-inf) [1, 8] was 11.7 µg·h/mL. The Cmax [1, 8] was 10.1 ± 0.31 µg/mL, the MRT [1, 8] was 69.7 min and the half-life [1, 8] was 39.5 ± 4.79 min. For the same molecule, the AUC(0-t) [1, 8] was 11 µg·h/mL.
